Experimental data: patent US20130065818A1, “Arylamide Compounds And Compositions And Uses Thereof” (POLYMEDIX, priority 2006, published 2013)
“And” between values parts separate entries of the source, which are not always exact repeats. Equal values may be shown once. One block for each compound: values may come before it.

Experiments:
[1] = NZW rabbit keratitis model, clinical evaluation (Total Ocular Score); conditions: for Total Ocular Score: Example 12 data display; for Chemosis score / Conj. score / Corneal Edema score / Corneal Infiltrate score / Discharge score / Iritis score: scale 0 = Normal to 3.0 = Severe
Procedure: Fifteen rabbits were received from Myrtles' Rabbitry, Thompson Station, TN. The clinical isolate of fluoroquinolone-resistant, methicillin-resistant (MRSA) Staphylococcus aureus (K950) was subcultured on 5% sheep blood agar and incubated at 37° C. in 6% CO2 overnight. The next morning, the MRSA strain was suspended in sterile trypticase soy broth to a 0.5 McFarland Standard, containing approximately 5×10^8 cfu/ml of bacteria. The absorbance of the suspension was measured at 650 nm using a Beckman DU-70 spectrophotometer. OD readings of 0.07 corresponded to 5×10^8 cfu/ml of bacteria. This concentration was appropriately diluted in sterile trypticase soy broth to provide the inoculum of approximately 1,000 (1.0×10^3) cfu/eye in 25 μl. Colony counts were performed on the inoculum to determine the actual cfu inoculated. Following general anesthesia with ketamine and xylazine and topical anesthesia with proparacaine and prior to bacterial inoculation in the left eyes, 6 mm areas of the corneal epithelia was removed centrally with an Amoils epithelial scrubber. Nothing was done to the right eyes. The 15 rabbits were then inoculated intrastromally in both eyes with 25 μl of the bacterial dilution of approximately 10^3 cfu/eye of the bacteria. The bacterial inoculation of the left eyes was directly under the epithelial defect created by the Amoils epithelial scrubber. The epithelia were removed in the left corneas in order to determine whether this layer of the cornea is a barrier for Oligomer 2 penetration when compared to the right cornea with an intact epithelium. A colony count was done on the inoculum to determine the actual cfu inoculated. The rabbits were immediately treated with analgesia in the form of and intramuscular injection of ketoprofen, 1.5 mg/kg. After 4 hours, the 15 rabbits were divided into 4 treatment groups and one untreated control group sacrificed at the onset of therapy. Both eyes of each rabbit of the treatment groups were treated with one 37 μl drop of the coded solutions or control Saline or 1 drop of vancomycin from its dropper bottle. The Oligomer 2 concentrations were masked and labeled as 1 and 2. The masked concentrations were 1% Oligomer 2 and 0.5% Oligomer 2 but the specific concentrations of solutions were not known to the lab workers who carried out the experiment. The vancomycin and control (Tris-Buffered Saline) were not masked.
Treatment was scheduled for every 15 minutes for 5 hours (21 total doses). However, PMX-1 and PMX-2 were exhausted after the 19th dose. Therefore, the actual treatment was 15 minutes for 4.5 hours (19 total doses). The 3 rabbits in group V were sacrificed 4 hours PI and large 9.5 mm buttons were removed from the corneas. These were placed in 1 ml of PBS and kept on ice. The corneal buttons were homogenized for 25 seconds on ice using the motorized homogenizer. After homogenization, colony counts were done on the homogenates using 5% sheep blood agar plates to determine the amount of bacteria contained in the corneas at the onset of therapy. Following the completion of therapy, the eyes were examined for clinical signs of infection. One hour after the final treatment, the treated rabbits (Groups I-IV) were sacrificed and large 9.5 mm buttons were removed from the corneas. These were placed in 1 ml of PBS and kept on ice. The corneal buttons were homogenized for 25 seconds on ice using the motorized homogenizer. After homogenization, colony counts were performed on the homogenates using 5% sheep blood agar plates to determine the amount of bacteria contained in the corneas after treatment. The next morning, the plates were counted and the number of cfu/eye of Staphylococcus aureus was determined for each cornea.
Fifteen rabbits were received from Myrtles' Rabbitry, Thompson Station, TN.

[2] = test system: fluoroquinolone-resistant, methicillin-resistant Staphylococcus aureus (K950); assay: NZW rabbit keratitis model, corneal colony counts; type: in vivo; conditions: for Log10 CFU/ml, Mean / Log10 CFU/ml, Median / Log10 CFU/ml / CFU/ml: Example 11; for Log10 CFU/ml, Mean / Log10 CFU/ml, Median: count 3; for Log10 CFU/ml / CFU/ml: individual cornea; for CFU/ml: Inoculum = 1098 CFU/cornea; for Corneal colony count, Mean / Corneal colony count, Median / Corneal colony count, TrMean: N=3; for Corneal colony count, log / Corneal colony count: individual corneas; for Corneal colony count: Inoculum = 1048 cfu/cornea, 1 hour after final drop; for Log10 CFU/ml, group comparison (Duncan Multiple Comparisons Test): P = 0.05, < = significantly fewer colony counts
Description: (§1) One purpose of the following experiments was to compare the efficacy of 1% Oligomer 2, 0.5% Oligomer 2, and 5% vancomycin in the treatment of a fluoroquinolone-resistant, methicillin-resistant Staphylococcus aureus infection in the NZW rabbit keratitis model with or without intact corneal epithelia.
Nothing was done to the right eyes.
as §1, with “0.25%” for “1%”, “with and without 0.005% benzalkonium chloride,” for “0.5% Oligomer 2,”, “epithelia. The 0.005% benzalkonium chloride has been added to try to increase the penetration of 0.25% Oligomer 2 through the corneal epithelium.” for “epithelia.”
One purpose of the following experiments was to determine the efficacy of 0.25% Oligomer 4, with and without 200 μM Farnesol, and 200 μM Farnesol in the treatment of a fluoroquinolone-resistant and methicillin-resistant Staphylococcus aureus infection in the NZW rabbit keratitis model with or without intact corneal epithelia. The 200 μM Farnesol has been added to try to increase the efficacy and penetration of 0.25% Oligomer 4 through the corneal epithelium.

Serratia marcescens (SM) = assay: MIC of clinical ocular isolates (Example 1); type: cell-based; conditions: SM clinical ocular isolates (n=27)
P. aeruginosa (PA) = assay: MIC of clinical ocular isolates (Example 1); type: cell-based; conditions: Pseudomonas aeruginosa; PA clinical ocular isolates (n=26)
St. pneumoniae (SP) = assay: MIC of clinical ocular isolates (Example 1); type: cell-based; conditions: Streptococcus pneumoniae; SP clinical ocular isolates (n=27)
[3] = test system: Ciprofloxacin Resistant (CR) S. aureus (CRSA); assay: MIC of clinical ocular isolates (Example 1); type: cell-based; conditions: Staphylococcus aureus; CRSA clinical ocular isolates (n=28)
Moraxella Species (MS) = assay: MIC of clinical ocular isolates (Example 1); type: cell-based; conditions: MS clinical ocular isolates (n=25)
H. influenzae (HI) = assay: MIC of clinical ocular isolates (Example 1); type: cell-based; conditions: Haemophilus influenzae; HI clinical ocular isolates (n=26)
[4] = test system: Ciprofloxacin Susceptible (CS) S. aureus (CSSA); assay: MIC of clinical ocular isolates (Example 1); type: cell-based; conditions: Staphylococcus aureus; CSSA clinical ocular isolates (n=27)
CS S. epidermidis (CSSE) = assay: MIC of clinical ocular isolates (Example 1); type: cell-based; conditions: Staphylococcus epidermidis; CSSE clinical ocular isolates (n=26)
CR S. epidermidis (CRSE) = assay: MIC of clinical ocular isolates (Example 1); type: cell-based; conditions: Staphylococcus epidermidis; CRSE clinical ocular isolates (n=26)
St. viridans group (SV) = assay: MIC of clinical ocular isolates (Example 1); type: cell-based; conditions: Streptococcus viridans
[5] = Example 11, Oligomer 4 / Farnesol study, intact epithelium, individual eye
[6] = Example 11, intact epithelium, count 3
[7] = Example 12, Ker-3 and Ker-4 combined, intact epithelium, count 6
[8] = Abraded Epithelium (AE), individual eyes, Ker-1, drops every 15 min, 19 doses
[9] = Intact Epithelium (IE), individual eyes, Ker-1, drops every 15 min, 19 doses
[10] = Example 11, Oligomer 4 / Farnesol study, abraded epithelium, individual eye
[11] = Example 11, abraded epithelium, count 3
[12] = Example 12, Ker-3 and Ker-4 combined, abraded epithelium, count 6

SMILES: CC(C)=CCCC(C)=CCCC(C)=CCO [FARN-IE]
Chemosis [1, 5]: 1.5 (2×) and 1.0
Conj. [1, 5]: 1.5
Corneal Edema [1, 5]: 1.0 (2×) and 0.5
Corneal Infiltrate [1, 5]: 2.0 (2×) and 1.5
Discharge [1, 5]: 1.5 (2×) and 1.0
Iritis [1, 5]: 1.5 (2×) and 2.0
Total Score [1, 5]: 9.0 and 7.0 and 9.5
Total Ocular Score, Mean [1, 6]: 8.500
Total Ocular Score, Median [1, 6]: 9.000
Total Ocular Score, Mean [1, 7]: 9.000
Total Ocular Score, Median [1, 7]: 9.250
Total Ocular Score ([1]; Ker-3, intact epithelium, individual eye): 10.0 (2×) and 8.5
Total Ocular Score ([1]; Ker-4, intact epithelium, individual eye): 9.0 and 7.0 and 9.5
Log10 CFU/ml, Mean ([2]; intact epithelium): 7.418 Log10 CFU/ml
Log10 CFU/ml, Median ([2]; intact epithelium): 7.330 Log10 CFU/ml and 7.3304 Log10 CFU/ml
Log10 CFU/ml ([2]; intact epithelium): 7.655 Log10 CFU/ml and 7.27 Log10 CFU/ml and 7.33 Log10 CFU/ml
CFU/ml ([2]; intact epithelium): 45200000 CFU/ml and 18600000 CFU/ml and 21400000 CFU/ml

MIC50 (Serratia marcescens (SM)): 16 µg/mL
MIC90 (Serratia marcescens (SM)): 64 µg/mL
MIC50 (P. aeruginosa (PA)): 4 µg/mL
MIC90 (P. aeruginosa (PA)): 8 µg/mL
MIC50 (St. pneumoniae (SP)): 0.5 µg/mL
MIC90 (St. pneumoniae (SP)): 1 µg/mL
MIC50 [3]: 0.25 µg/mL
MIC90 [3]: 0.25 µg/mL
MIC50 (Moraxella Species (MS)): 0.5 µg/mL
MIC90 (Moraxella Species (MS)): 0.5 µg/mL
MIC50 (H. influenzae (HI)): 16 µg/mL
MIC90 (H. influenzae (HI)): 32 µg/mL
MIC50 [4]: 0.125 µg/mL
MIC90 [4]: 0.25 µg/mL
MIC50 (CS S. epidermidis (CSSE)): 0.03 µg/mL
MIC90 (CS S. epidermidis (CSSE)): 0.125 µg/mL
MIC50 (CR S. epidermidis (CRSE)): 0.03 µg/mL
MIC90 (CR S. epidermidis (CRSE)): 0.03 µg/mL
MIC50 (St. viridans group (SV)): 4 µg/mL
MIC90 (St. viridans group (SV)): 16 µg/mL
SMILES: CC(C)(C)c1cc(NC(=O)CCCCNC(=N)N)c(SCCNC(=N)N)c(NC(=O)c2cc(C(=O)Nc3cc(C(C)(C)C)cc(NC(=O)CCCCNC(=N)N)c3SCCNC(=N)N)ncn2)c1 [Oligomer 1]

SMILES: CN[C@H](CC(C)C)C(=O)N[C@H]1C(=O)N[C@@H](CC(N)=O)C(=O)N[C@H]2C(=O)N[C@H]3C(=O)N[C@H](C(=O)N[C@H](C(=O)O)c4cc(O)cc(O)c4-c4cc3ccc4O)[C@H](O)c3ccc(c(Cl)c3)Oc3cc2cc(c3O[C@@H]2O[C@H](CO)[C@@H](O)[C@H](O)[C@H]2O[C@H]2C[C@](C)(N)[C@H](O)[C@H](C)O2)Oc2ccc(cc2Cl)[C@H]1O [VAN]
Chemosis score [1, 8]: 3.0 and 2.5 (2×)
Conj. score [1, 8]: 3.0 and 2.5 (2×)
Corneal Edema score [1, 8]: 0.5 and 1.0 (2×)
Corneal Infiltrate score [1, 8]: 0.5 and 0 (2×)
Discharge score [1, 8]: 3.0 and 2.0 and 2.5
Iritis score [1, 8]: 1.0 and 1.5 (2×)
Total Score ([1]; Abraded Epithelium (AE), individual eyes, Ker-1, drops every 15 min, 19 doses, sum of six signs): 11.0 and 9.5 and 10.0
Total Ocular Score, Mean ([1]; Abraded Epithelium, N=3): 10.167
Total Ocular Score, Median ([1]; Abraded Epithelium, N=3): 10.000
Total Ocular Score, TrMean ([1]; Abraded Epithelium, N=3): 10.167
Total Ocular Score, group comparison (Duncan Multiple Comparisons Test) ([1]; IE and AE groups, P = 0.05): CON IE = CON AE < VAN AE = PMX-1AE = PMX-2AE = VAN IE < PMX-1 IE = PMX-2 IE
Chemosis score [1, 9]: 3.0
Conj. score [1, 9]: 2.5 and 3.0 (2×)
Corneal Edema score [1, 9]: 1.0
Corneal Infiltrate score [1, 9]: 0 (2×) and 0.5
Discharge score [1, 9]: 3.0 (2×) and 2.5
Iritis score [1, 9]: 2.0 (2×) and 1.0
Total Score ([1]; Intact Epithelium (IE), individual eyes, Ker-1, drops every 15 min, 19 doses, sum of six signs): 11.5 and 12.0 and 11.0
Total Ocular Score, Mean ([1]; Intact Epithelium, N=3): 11.500
Total Ocular Score, Median ([1]; Intact Epithelium, N=3): 11.500
Total Ocular Score, TrMean ([1]; Intact Epithelium, N=3): 11.500
Corneal colony count, Mean ([2]; Abraded Epithelium): 2.674 Log10 CFU/ml
Corneal colony count, Median ([2]; Abraded Epithelium): 2.845 Log10 CFU/ml
Corneal colony count, TrMean ([2]; Abraded Epithelium): 2.674 Log10 CFU/ml
Corneal colony count, log ([2]; Abraded Epithelium): 2.301 Log10 CFU/ml and 2.845 Log10 CFU/ml and 2.875 Log10 CFU/ml
Corneal colony count ([2]; Abraded Epithelium): 200 CFU/ml and 700 CFU/ml and 750 CFU/ml
Log10 CFU/ml, group comparison (Duncan Multiple Comparisons Test) ([2]; Abraded Epithelium): PMX-2 = VAN = PMX-1 < ONSET = CON
Corneal colony count, Mean ([2]; Intact Epithelium): 2.7239 Log10 CFU/ml
Corneal colony count, Median ([2]; Intact Epithelium): 2.7404 Log10 CFU/ml
Corneal colony count, TrMean ([2]; Intact Epithelium): 2.7239 Log10 CFU/ml
Corneal colony count, log ([2]; Intact Epithelium): 2.74 Log10 CFU/ml and 2.653 Log10 CFU/ml and 2.778 Log10 CFU/ml
Corneal colony count ([2]; Intact Epithelium): 550 CFU/ml and 450 CFU/ml and 600 CFU/ml
Log10 CFU/ml, group comparison (Duncan Multiple Comparisons Test) ([2]; Intact Epithelium): VAN < PMX-1 = PMX-2 = ONSET = CON

SMILES: CC(C)=CCCC(C)=CCCC(C)=CCO [FARN-AE]
Chemosis [1, 10]: 2.0 and 1.5 (2×)
Conj. [1, 10]: 2.0 and 1.5 (2×)
Corneal Edema [1, 10]: 2.0 and 1.0 (2×)
Corneal Infiltrate [1, 10]: 1.0 (2×) and 0.5
Discharge [1, 10]: 2.0 and 1.5 (2×)
Iritis [1, 10]: 2.0 and 1.5 (2×)
Total Score [1, 10]: 11.0 and 7.5 and 8.0
Total Ocular Score, Mean [1, 11]: 8.83
Total Ocular Score, Median [1, 11]: 8.00
Total Ocular Score, Mean [1, 12]: 9.083
Total Ocular Score, Median [1, 12]: 8.500
Total Ocular Score ([1]; Ker-3, abraded epithelium, individual eye): 11.0 and 8.5 (2×)
Total Ocular Score ([1]; Ker-4, abraded epithelium, individual eye): 11.0 and 7.5 and 8.0
Log10 CFU/ml, Mean ([2]; abraded epithelium): 6.8762 Log10 CFU/ml
Log10 CFU/ml, Median ([2]; abraded epithelium): 6.8893 Log10 CFU/ml
Log10 CFU/ml ([2]; abraded epithelium): 6.889 Log10 CFU/ml and 6.823 Log10 CFU/ml and 6.916 Log10 CFU/ml
CFU/ml ([2]; abraded epithelium): 7750000 CFU/ml and 6650000 CFU/ml and 8250000 CFU/ml
